The values that follow come from patent US9149416B1, “High deposition cleansing system” (WELLMARK INTERNATIONAL, priority 2008, dated 2015).

For this test, the system named is adult cat fleas. As to the kind of experiment: Residual flea efficacy trials on infested cats (Studies A-D). The following applies: cleansing system 40 mg/kg vs topical at average 225 mg/kg. The test is classed as in vivo. On the procedure:
The efficacy trials were performed using protocols that required the experimental group of infested cats to be compared with an untreated group of similarly infested animals.
The cleansing emulsion system formulation, containing 0.5% etofenprox was applied to the wet animals at the rate of 8 grams of cleansing system per kg of animal body weight. The 40% etofenprox topical was applied at the rate of 1 ml per cat for weights up to 5 lbs. (2.2 kg) and 2 ml per cat for those weighing greater than 5 lbs. (2.2 kg). The average rate of etofenprox applied to the cleansing system treated cats was 40 mg etofenprox per kg of body weight. The average rate of etofenprox applied to the topical treated cats was 225 mg per kg of body weight.
All test animals were infested with 100 unfed adult cat fleas prior to treatment. The cats were examined for the presence of live fleas at 24 to 48 hours after treatment. Residual data points were accomplished by infesting the treated animals at 14, 21 and 28 days after treatment. The animals were then examined for the presence of live fleas 48 hours after each infestation.

Take `CCOc1ccc(C(C)(C)COCc2cccc(Oc3ccccc3)c2)cc1` [Etofenprox]: the “residual adult flea kill / residual efficacy compared with topical” value is “residual efficacy results similar to 225 mg/kg BW rates required for topical formulations”.
